# Assay: Beat-to-beat QTc interval histograms from 24-hour ambulatory ECG (Holter) recordings
# Format: in vivo, patients
# Excerpt: An example of this type of device is a Reynolds Medical Tracker II (Reynolds Medical, Hertford UK) recorder. […] For QT interval analysis, the sample rate can be between 128 and 2000 samples per seconds. The preferred embodiment is the use of a sample rate of at least of at least 1000 samples per second. These digital recorders must also be compatible with a Holter playback system that can produce beat-to beat interval measurements. An example of this type of device is the Reynolds Medical LifeCard CF recorder (Reynolds Medical, Hertford, UK). An example of the compatible Holter playback system is the Reynolds Medical Pathfinder 700 series. […]
# Using the digitized file of the electrocardiogram, a QT interval analysis may be accomplished in the following manner: The onset of a Q-wave (Qb) may be defined and a cursor may be placed at this point. […] The data from the digital file may then be replayed at 60-times normal time, while the cursors on the Qb and Te points may be monitored for stability. […] The QT intervals may be measured for the entire AECG recording on a beat-to-beat basis. […]
# The peak of an R-wave may be detected and a third cursor may be placed (Rp). […]
# In the examples described herein QTc was calculated by removing a time-series of the QT and preceding R--R intervals to a high-speed computer with both a fast processor and adequate disk storage space. […]
smiles,measurement,setting,value
"COc1cc(N)c(Cl)cc1C(=O)NC1CCN(CCCOc2ccc(F)cc2)CC1OC (centres unmarked) [cisapride, Cisapride]",mean QTc interval,"QTc interval histogram of a single patient taking cisapride (FIG. 3), 24 hour AECG",440 ms
same,mean QTc,"composite curve of subjects on drug therapy (FIG. 4: subjects on cisapride), normal subjects 409 msec, ILQT 475 msec",430 ms

# Reference: patent US20050010123A1, “Process for measuring QT intervals and constructing composite histograms to compare groups” (priority 2003, published 2005)
